Here are results for 6 compounds from DBAASP.

In brackets after ≈: the same amount, converted by molar mass. Several values for one entry are separate records, joined by “and”; a condition that tells them apart may be missing. Equal entries are not always repeated.

What all share (assay): ≥ marks a high value that may be exact or a test limit, other limits are often not marked, values filed in µg/mL are converted to µM
Test [1] relates to Bacillus megaterium Bm11.
Test [2] has as its system Escherichia coli ML-35.
For test [3], the system named is Pseudomonas aeruginosa ATCC 27853.
The test system of test [4] is Salmonella enterica subsp. enterica serovar Typhimurium ATCC 14028.
The test system of test [5] is Staphylococcus aureus 710A.
For test [6], the system named is Cronobacter muytjensii ATCC 51329.
Test [7] concerns Cronobacter sakazakii ATCC BAA-894.
Test [8] concerns Cronobacter sakazakii DPC 6440.
The test system of test [9] is Cronobacter sakazakii DSM 4485.
The subject of test [10] is Escherichia coli NCIMB 11843.
Test [11] deals with Klebsiella pneumoniae NCIMB 13218.
The test system of test [12] is Pseudomonas fluorescens NCIMB 9046.
In test [13] the test system is Salmonella enterica subsp. enterica serovar Typhimurium LT2.
The subject of test [14] is Staphylococcus aureus NCTC 8325-4.
In test [15] the test system is Staphylococcus aureus Newman.
The subject of test [16] is Staphylococcus aureus RF122.
The test system of test [17] is Staphylococcus aureus RN4220.
Test [18] has as its system Staphylococcus aureus SA113.
In test [19] the test system is Escherichia coli UB1005.
The subject of test [20] is Pseudomonas aeruginosa H374.
Test [21] relates to Pseudomonas aeruginosa H547.
Test [22] relates to Pseudomonas aeruginosa H744.
Test [23] concerns Pseudomonas aeruginosa K799.
The test system of test [24] is Pseudomonas aeruginosa Z61.
For test [25], the system named is Salmonella enterica subsp. enterica serovar Typhimurium ATCC 14028s.
Test [26] concerns Bacillus subtilis 168 HT.
In test [27] the test system is Escherichia coli MG1655.
Test [28] deals with Candida albicans CGMCC 2.2086.
The test system of test [29] is Candida parapsilosis CGMCC 2.3989.
The test system of test [30] is Candida tropicalis CGMCC 2.1975.
For test [31], the system named is Escherichia coli 078.
The subject of test [32] is Escherichia coli 987P.
Test [33] deals with Escherichia coli ATCC 25922.
For test [34], the system named is Escherichia coli K88.
Test [35] has as its system Escherichia coli K99.
In test [36] the test system is Lacticaseibacillus rhamnosus 7469.
Test [37] has as its system Lactiplantibacillus plantarum 8014.
Test [38] deals with Pseudomonas aeruginosa PAO1.
The test system of test [39] is Salmonella enterica subsp. enterica serovar Typhimurium C77-31.
Test [40] has as its system Staphylococcus aureus ATCC 25923.
In test [41] the test system is Staphylococcus aureus ATCC 29213.
Test [42] concerns Staphylococcus epidermidis ATCC 12228.

Consider `CC[C@H](C)[C@H](NC(=O)[C@H](CCCCN)NC(=O)[C@H](CCCCN)NC(=O)[C@H](CC(C)C)NC(=O)[C@H](CC(C)C)NC(=O)CN)C(=O)NCC(=O)N[C@@H](CCCCN)C(=O)N[C@@H](CCCCN)C(=O)N[C@@H](C)C(=O)N[C@@H](CCCCN)C(=O)N[C@@H](CCCCN)C(=O)N[C@@H](C)C(=O)N[C@@H](CC(C)C)C(=O)N[C@@H](CCCCN)C(=O)N[C@@H](CCCCN)C(=O)N[C@@H](CC(C)C)C(=O)NCC(=O)N[C@@H](Cc1ccc(O)cc1)C(N)=O` [GLLKKIGKKAKKALKKLGY], for which the minimal inhibitory concentration (MIC) in test [1] was found to be 2 µM (≈ 4.17 µg/mL); in [2] it was 0.5 µM (≈ 1.04 µg/mL); in test [3], 0.5 µM (≈ 1.04 µg/mL); in [4], 2 µM (≈ 4.17 µg/mL); in [5], 2 µM (≈ 4.17 µg/mL).
For `CC[C@H](C)[C@H](N)C(=O)N[C@@H](C)C(=O)N[C@@H](Cc1cnc[nH]1)C(=O)N[C@@H](CCC(N)=O)C(=O)NCC(=O)N[C@@H](CC(C)C)C(=O)N1CCC[C@H]1C(=O)N[C@@H](CCC(N)=O)C(=O)N[C@@H](CCC(=O)O)C(=O)O` [IAHQGLPQE], the MIC is at least 2500 µM in test [6]; at least 2500 µM in [7]; at least 312 µM in test [8]; at least 2500 µM in test [9]; at least 1250 µM in test [10]; at least 1250 µM in test [11]. Moreover, the MIC in test [12], in test [13], in [14], in test [15], in test [16] and in [17] was at least 1250 µM in each case. In [18], this compound came in with an MIC of at least 1250 µM.
For the compound `CC(C)[C@H](NC(=O)[C@H](CO)NC(=O)[C@H](CC(N)=O)NC(=O)[C@H](CC(=O)O)NC(=O)[C@H](Cc1ccccc1)NC(=O)[C@H](CO)NC(=O)CNC(=O)[C@@H](NC(=O)[C@H](CCC(N)=O)NC(=O)[C@H](CCCCN)NC(=O)[C@H](Cc1ccccc1)NC(=O)[C@H](Cc1ccccc1)NC(=O)[C@H](CO)NC(=O)[C@H](CCCCN)NC(=O)[C@H](CCCN=C(N)N)NC(=O)[C@H](Cc1c[nH]c2ccccc12)NC(=O)[C@H](CCCCN)NC(=O)[C@@H](N)CCCCN)C(C)C)C(=O)O` [KKWRKSFFKQVGSFDNSV], the MIC in test [19], in test [20], in [21], in [22], in [23] and in test [24] was 29.2 µM (≈ 64 µg/mL) each time. Besides, the MIC in test [25] worked out at 29.2 µM (≈ 64 µg/mL).
Take `CC[C@H](C)[C@H](NC(=O)[C@@H](N)CC(C)C)C(=O)N[C@H](C(=O)N[C@@H](CC(C)C)C(=O)N[C@H](C(=O)N[C@@H](CS)C(=O)N[C@@H](CCCN=C(N)N)C(=O)N[C@@H](CCCCN)C(=O)N[C@@H](CCCCN)C(=O)N[C@@H](CCCCN)C(=O)N[C@@H](CCCCN)C(=O)N1CCC[C@H]1C(=O)N[C@@H](Cc1ccccc1)C(=O)O)[C@@H](C)O)C(C)C` [LIVLTCRKKKKPF]: the MIC in test [26] was at least 40.7 µM; in test [27], at least 81 µM.
In the case of `CC[C@H](C)[C@H](NC(=O)[C@H](CCCCN)NC(=O)[C@H](CCCCN)NC(=O)[C@H](CC(C)C)NC(=O)[C@H](CC(C)C)NC(=O)CN)C(=O)N[C@@H](C)C(=O)N[C@@H](CCCCN)C(=O)N[C@@H](CCCCN)C(=O)N[C@@H](C)C(=O)N[C@@H](CCCCN)C(=O)N[C@@H](CCCCN)C(=O)N[C@@H](C)C(=O)NCC(=O)N[C@@H](CCCCN)C(=O)N[C@@H](CCCCN)C(=O)N[C@@H](CC(C)C)C(=O)NCC(=O)N[C@@H](Cc1ccc(O)cc1)C(N)=O` [GLLKKIAKKAKKAGKKLGY], the MIC in [1] is at least 32 µM; in test [2], 4 µM (≈ 8.17 µg/mL); in test [3] it was 8 µM (≈ 16.3 µg/mL); in test [4], over 32 µM; in test [5], at least 32 µM.
With `CC[C@H](C)[C@H](N)C(=O)N[C@@H](Cc1cnc[nH]1)C(=O)N[C@@H](Cc1cnc[nH]1)C(=O)N[C@H](C(=O)N[C@@H](Cc1cnc[nH]1)C(=O)N[C@@H](Cc1cnc[nH]1)C(=O)N[C@@H](Cc1cnc[nH]1)C(=O)N[C@H](C(=O)N[C@@H](Cc1cnc[nH]1)C(=O)N[C@@H](Cc1cnc[nH]1)C(=O)N[C@H](C(=O)N[C@@H](Cc1cnc[nH]1)C(=O)N[C@@H](Cc1cnc[nH]1)C(=O)N[C@@H](Cc1cnc[nH]1)C(N)=O)[C@@H](C)CC)[C@@H](C)CC)[C@@H](C)CC` [IHHIHHHIHHIHHH], the MIC in test [28] is 16 µM (≈ 29.5 µg/mL); in test [29], 2 µM (≈ 3.68 µg/mL); in [30], 1 µM (≈ 1.84 µg/mL); in test [31], at least 64 µM; in [32] it was at least 64 µM; in test [33] it was 64 µM and > 32 µM. Besides, the MIC in [34] was at least 64 µM; in test [35], at least 64 µM; in test [19], at least 64 µM; in test [36], at least 64 µM; in [37], at least 64 µM; in test [38], 64 µM (≈ 118 µg/mL). Moreover, the MIC in test [4] was over 64 µM; in test [39], at least 64 µM; in [40] it was over 64 µM; in [41], over 64 µM; in test [42], over 64 µM.
